Data as given in patent publication US12285012B2, “Compositions comprising pyridine carboxylate herbicides with acetolactate synthase (ALS) inhibitor herbicides” (Corteva Agriscience LLC, priority 2018, dated 2025).
Several values for one entry are separate records, joined by “and”; a condition that tells them apart may be missing. Equal values may be shown once. Read-outs that look alike come from different tables or passages of the source.

What was measured:
[1] = system: R-PAPRH = Papaver rhoeas (corn poppy), herbicide-resistant; test: Greenhouse postemergence herbicidal effect; type: in vivo
How it was run: (§1)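 Plants at the second or third true leaf stage, grown at about 23/22 °C day/night with a 14 h photoperiod, were sprayed postemergence. Emulsifiable concentrates held cloquintocet-mexyl safener at 120 g ai/L; rates are g ae/ha (pyridine carboxylate) or g ai/ha (ALS inhibitor). Injury was scored visually against solvent-blank controls at 20-22 d (0-100%).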

[2] = system: bird's-eye speedwell (VERPE, Veronica persica); test: Greenhouse postemergence herbicidal effect; type: in vivo
How it was run: as §1

[3] = system: cleavers (GALAP, Galium aparine); test: Greenhouse postemergence herbicidal effect; type: in vivo
How it was run: as §1

[4] = system: corn poppy (PAPRH, Papaver rhoeas); test: Greenhouse postemergence herbicidal effect; type: in vivo
How it was run: as §1

[5] = system: cornflower (CENCY, Cyanus segetum); test: Greenhouse postemergence herbicidal effect; type: in vivo
How it was run: as §1

[6] = system: false chamomile (MATIN, Matricaria inodora); test: Greenhouse postemergence herbicidal effect; type: in vivo
How it was run: as §1

[7] = system: field chamomile (ANTAR, Anthemis arvensis); test: Greenhouse postemergence herbicidal effect; type: in vivo
How it was run: as §1

[8] = system: field violet (VIOAR, Viola arvensis); test: Greenhouse postemergence herbicidal effect; type: in vivo
How it was run: as §1

[9] = system: ivyleaf speedwell (VERHE, Veronica hederifolia); test: Greenhouse postemergence herbicidal effect; type: in vivo
How it was run: as §1

[10] = system: purple deadnettle (LAMPU, Lamium purpureum); test: Greenhouse postemergence herbicidal effect; type: in vivo
How it was run: as §1

[11] = system: shepherd's purse (CAPBP, Capsella bursa-pastoris); test: Greenhouse postemergence herbicidal effect; type: in vivo
How it was run: as §1

[12] = system: wild mustard (SINAR, Sinapis arvensis); test: Greenhouse postemergence herbicidal effect; type: in vivo
How it was run: as §1

[13] = system: common lambsquarters (CHEAL, Chenopodium album L.); test: Greenhouse postemergence herbicidal effect; type: in vivo
spring barley (HORVS) = type: in vivo, Hordeum vulgare
How it was run: as §1

[14] = system: turnip (BRSRR, Brassica rapa); test: Greenhouse postemergence herbicidal effect; type: in vivo
How it was run: as §1

[15] = Compound A 10 g/ha (Examples 62-63)
[16] = Compound A 10 g/ha, safener mefenpyr-diethyl

In the case of N#CCOC(=O)c1nc(-c2ccc3cc[nH]c3c2F)c(F)c(N)c1Cl [Compound A, cyanomethyl 4-amino-3-chloro-5-fluoro-6-(7-fluoro-1H-indol-6-yl)pyridine-2-carboxylate], the “% visual injury” value ([1]; Compound A 10 g/ha) is reported as 93%, the “% visual injury” value ([1]; Compound A 15 g/ha) is reported as 93% and the “% visual injury” value ([2]; Compound A 10 g/ha) is reported as 93%. For the same compound, the “% visual injury” value ([2]; Compound A 15 g/ha) was 95%, the “% visual injury” value ([3]; Compound A 10 g/ha) was 25% and the “% visual injury” value ([3]; Compound A 15 g/ha) was 35%. For the same compound, the “% visual injury” value ([4]; Compound A 10 g/ha) was 100%, the “% visual injury” value ([4]; Compound A 15 g/ha) was 100% and the “% visual injury” value ([5]; Compound A 10 g/ha) was 93%. For the same compound, the “% visual injury” value ([5]; Compound A 15 g/ha) was 95%, the “% visual injury” value ([6]; Compound A 10 g/ha) was 100% and the “% visual injury” value ([6]; Compound A 15 g/ha) was 100%. The “% visual injury” value ([7]; Compound A 10 g/ha) was 90%, the “% visual injury” value ([7]; Compound A 15 g/ha) was 95% and the “% visual injury” value ([8]; Compound A 10 g/ha) was 5%. For the same compound, the “% visual injury” value ([8]; Compound A 15 g/ha) was 5%, the “% visual injury” value ([9]; Compound A 10 g/ha) was 80% and the “% visual injury” value ([9]; Compound A 15 g/ha) was 80%. The “% visual injury” value ([10]; Compound A 10 g/ha) was 75%, the “% visual injury” value ([10]; Compound A 15 g/ha) was 75% and the “% visual injury” value ([11]; Compound A 10 g/ha) was 70%. The “% visual injury” value ([11]; Compound A 15 g/ha) was 80%, the “% visual injury, Obs” value ([12]; 10 g/ha) was 90% and 92% and 88% and the “% visual injury” value ([12]; Compound A 10 g/ha) was 95% and 90% and 88% and 93%. For the same compound, the “% visual injury Obs” value ([12]; Compound A 10 g/ha) was 93% and 92% and 88%, the “% visual injury, Obs” value ([12]; Compound A 10 g/ha) was 100% and the “SINAR % visual injury Obs” value [12, 15] was 100%. The “% visual injury” value ([12]; Compound A 15 g/ha) was 97% and 93%, the “% visual injury Obs” value ([12]; Compound A 15 g/ha) was 93% and the “% visual injury, Obs” value ([12]; SINAR, Compound A 10 g/ha) was 93%. For the same compound, the “Obs % visual injury” value ([12]; SINAR, Compound A 10 g/ha) was 93% and 88% and 100%, the “Obs % visual injury” value ([12]; SINAR, Compound A 10 g/ha (Table 65)) was 100% and the “Obs % visual injury” value ([12]; SINAR, Compound A 10 g/ha (Table 66)) was 88%. For the same compound, the “% visual injury, Obs” value ([12]; SINAR, Compound A 15 g/ha) was 93%, the “Obs % visual injury” value ([12]; SINAR, Compound A 15 g/ha) was 93% and the “% visual injury, Obs” value ([13]; 10 g/ha) was 83% and 90% and 78%. For the same compound, the “% visual injury, Obs” value ([13]; CHEAL, Compound A 10 g/ha) was 78% and 83%, the “Obs % visual injury” value ([13]; CHEAL, Compound A 10 g/ha) was 78% and 80% and 88% and the “Obs % visual injury” value ([13]; CHEAL, Compound A 10 g/ha (Table 65)) was 88%. For the same compound, the “Obs % visual injury” value ([13]; CHEAL, Compound A 10 g/ha (Table 66)) was 78%, the “Obs % visual injury” value ([13]; CHEAL, Compound A 10 g/ha (Table 67)) was 78% and the “% visual injury, Obs” value ([13]; CHEAL, Compound A 15 g/ha) was 85%. The “Obs % visual injury” value ([13]; CHEAL, Compound A 15 g/ha) was 85%, the “Obs % visual injury” value ([13]; CHEAL, Compound A 15 g/ha (Table 67)) was 83% and the “% visual injury” value ([13]; Compound A 10 g/ha) was 93% and 78%. The “% visual injury Obs” value ([13]; Compound A 10 g/ha) was 78% and 83% and 80%, the “% visual injury, Obs” value ([13]; Compound A 10 g/ha) was 88% and the “CHEAL % visual injury Obs” value [13, 15] was 88%. For the same compound, the “% visual injury, Obs” value [13, 16] was 100%, the “CHEAL % visual injury Obs” value [13, 16] was 100% and the “% visual injury” value ([13]; Compound A 15 g/ha) was 85%. For the same compound, the “% visual injury Obs” value ([13]; Compound A 15 g/ha) was 85%, the “% visual injury, Obs” value (spring barley (HORVS); 10 g/ha) was 0% and the “% visual injury” value (spring barley (HORVS); Compound A 10 g/ha) was 0%. The “% visual injury Obs” value (spring barley (HORVS); Compound A 10 g/ha) was 0%, the “% visual injury, Obs” value (spring barley (HORVS); Compound A 10 g/ha) was 0% and the “HORVS % visual injury Obs” value (spring barley (HORVS); [15]) was 0%. The “% visual injury” value (spring barley (HORVS); Compound A 15 g/ha) was 0%, the “% visual injury Obs” value (spring barley (HORVS); Compound A 15 g/ha) was 0% and the “% visual injury, Obs” value (spring barley (HORVS); HORVS, Compound A 10 g/ha) was 0%. The “Obs % visual injury” value (spring barley (HORVS); HORVS, Compound A 10 g/ha) was 0%, the “Obs % visual injury” value (spring barley (HORVS); HORVS, Compound A 10 g/ha (Table 65)) was 0% and the “Obs % visual injury” value (spring barley (HORVS); HORVS, Compound A 10 g/ha (Table 66)) was 0%. The “Obs % visual injury” value (spring barley (HORVS); HORVS, Compound A 10 g/ha (Table 67)) was 5%, the “% visual injury, Obs” value (spring barley (HORVS); HORVS, Compound A 15 g/ha) was 0% and the “Obs % visual injury” value (spring barley (HORVS); HORVS, Compound A 15 g/ha) was 0%. The “Obs % visual injury” value (spring barley (HORVS); HORVS, Compound A 15 g/ha (Table 67)) was 3%.

With C#CCOC(=O)c1nc(-c2ccc3cc[nH]c3c2F)c(F)c(N)c1Cl [Compound B, propargyl 4-amino-3-chloro-5-fluoro-6-(7-fluoro-1H-indol-6-yl)pyridine-2-carboxylate] the “Obs % visual injury” value ([14]; Compound B 10 g/ha) was 85%, the “% visual injury, Obs” value ([13]; 10 g/ha) was 93% and the “Obs % visual injury” value ([13]; CHEAL, Compound B 5 g/ha) was 96%. For the same compound, the “Obs % visual injury” value ([13]; CHEAL, Compound B 10 g/ha) was 94% and 96% and the “Obs % visual injury” value (spring barley (HORVS); HORVS, Compound B 10 g/ha) was 0%.

COc1ncc(F)c2nc(S(=O)(=O)Nc3c(F)cccc3F)nn12 [Florasulam, florasulam] was tested, and the “% visual injury” value ([1]; Florasulam 5 g/ha) was 75%, the “% visual injury” value ([2]; Florasulam 5 g/ha) was 10% and the “% visual injury” value ([3]; Florasulam 5 g/ha) was 95%. For the same compound, the “% visual injury” value ([4]; Florasulam 5 g/ha) was 97%, the “% visual injury” value ([5]; Florasulam 5 g/ha) was 70% and the “% visual injury” value ([6]; Florasulam 5 g/ha) was 100%. For the same compound, the “% visual injury” value ([7]; Florasulam 5 g/ha) was 70%, the “% visual injury” value ([8]; Florasulam 5 g/ha) was 10% and the “% visual injury” value ([9]; Florasulam 5 g/ha) was 5%. For the same compound, the “% visual injury” value ([10]; Florasulam 5 g/ha) was 10%, the “% visual injury” value ([11]; Florasulam 5 g/ha) was 80% and the “Obs % visual injury” value ([14]; Florasulam 5 g/ha) was 95%. The “% visual injury Obs” value ([12]; Florasulam 3.75 g/ha) was 85%, the “% visual injury” value ([12]; Florasulam 5 g/ha) was 95% and the “% visual injury Obs” value ([13]; Florasulam 3.75 g/ha) was 0%. The “% visual injury Obs” value (spring barley (HORVS); Florasulam 3.75 g/ha) was 0% and the “% visual injury” value (spring barley (HORVS); Florasulam 5 g/ha) was 0%.
